Laboratory results taken from US8585965B2, “Sterilization of polymeric materials” (priority 2006, dated 2013).

Experiments:
Type in all cases: cell-based
[1] = test system: Enterococcus faecalis ATCC 29212; experiment: Radiosensitization of bacteria coated onto a material surface (sterile 12 mm paper disks), gamma irradiation, cfu by dilution plating; details: for enhancement of the killing efficiency of the irradiation / cfu recovered, 0.3 kGy: 0.3 kGy; for enhancement of the killing efficiency of the irradiation: paper disks; for Post-Treatment CFU Added: 2 hours at room temperature; for cfu recovered, 0.3 kGy / cfu recovered, 0 kGy: paper disk; for cfu recovered, 0 kGy: not irradiated
Method: Enterococcus faecalis ATCC 29212, grown overnight in tryptic soy broth at 37° C. without shaking, were centrifuged and resuspended in 2% glucose at a concentration of about 5×10^7 cfu/ml. […] The cfu contained in each sample were quantified by dilution plating and the values are listed as “post-treatment cfu added.” None of the radiosensitizer treatments alone appeared to have a significant adverse effect on the bacteria.
Following radiosensitizer treatment, 0.05 ml of each mixture (containing approximately 1×10^6 cfu) was spotted onto sterile 12 mm paper disks and the disks air dried for 30 minutes. The disks were then placed in sterile tubes and left untreated or irradiated with 0.3 kGy. The cfu were recovered from the disks by vortexing with glass beads for 1 minute in 0.85% saline with 0.35 g/l lecithin and 2.5 ml/l Tween 80. Quantification of the cfu was then performed by dilution plating onto tryptic soy agar.

[2] = test system: Enterococcus faecalis ATCC 29212; experiment: Radiosensitization of bacteria coated onto Vicryl mesh (Example 2), irradiation 0.1 or 0.2 kGy; parameters: Inoculum: dose or concentration left out as unconfirmed
Method: (§1) Enterococcus faecalis ATCC 29212, grown overnight in tryptic soy broth at 37° C. without shaking, were centrifuged and resuspended in phosphate buffered saline (PBS) at a concentration of roughly 2×10^9 cfu/ml. […] The cfu contained in each sample after this incubation were quantified by dilution plating.
(§2) Following radiosensitizer treatment, 0.01 ml of each mixture (containing approximately 2×10^7 cfu) was spotted onto nine 1 cm×1 cm squares of Vicryl® mesh that were then air dried for 60 minutes. Triplicate samples were then placed in sterile tubes and left untreated or irradiated with 0.1 or 0.2 kGy. The cfu were recovered from the meshes by vortexing with glass beads for 1 minute in 0.85% saline with 0.35 g/l lecithin and 2.5 ml/l Tween 80. Quantification of the cfu was then performed by dilution plating onto tryptic soy agar.

[3] = test system: Enterococcus faecalis ATCC 29212; experiment: Radiosensitization of bacteria coated onto Prolene mesh (Example 3)
Method: as §1, with “about 5×10^8” for “roughly 2×10^9”
as §2, with “5×10^8” for “2×10^7”, “Prolene®” for “Vicryl®”, “0.3” for “0.2”, “mesh” for “meshes”

[4] = test system: Enterococcus faecalis ATCC 29212; experiment: Radiosensitization of bacteria coated onto Vicryl mesh (Example 3); details: for Avg CFU Recovered / Log Red v 0 kGy / Log Red v Control / Log Red v Inoculum: 50 μg/ml, Vicryl
Method: as §1, with “about 5×10^8” for “roughly 2×10^9”
as §2, with “5×10^8” for “2×10^7”, “0.3” for “0.2”, “mesh” for “meshes”

[5] = test system: Enterococcus faecalis ATCC 29212; experiment: Radiosensitization of bacteria coated onto Spongostan gelatin sponge (Example 4); details: 50 μg/ml methylene blue
Method: as §1, with “about 5×10^8” for “roughly 2×10^9”
as §2, with “5×10^8” for “2×10^7”, “Spongostan® gelatin sponge” for “Vicryl® mesh”, “minutes. (Spongostan® is a dry artificial sponge of fibrin prepared by clotting with thrombin, a foam or solution of fibrinogen. It is used in conjunction with thrombin as a hemostatic in surgery at sites where bleeding cannot be controlled by more common methods.)” for “minutes.”, “0.3” for “0.2”, “sponge” for “meshes”

[6] = 50 μg/ml methylene blue, 2 hours, no irradiation
[7] = 50 μg/ml, 0.3 kGy, Prolene, triplicate samples

O=C1O[C@H]([C@@H](O)CO)C(O)=C1O [Ascorbic Acid, ascorbic acid]
enhancement of the killing efficiency of the irradiation [1]: greatest effect | Percent Survival 0.3 vs. 0 kGy ([1]; Conc. 200 μg/ml): 0.28% | Post-Treatment CFU Added ([1]; Conc. 200 μg/ml): 8.55E+05 CFU | cfu recovered, 0.3 kGy ([1]; Conc. 200 μg/ml): 9 cfu | cfu recovered, 0 kGy ([1]; Conc. 200 μg/ml): 3270 cfu

O=[N+]([O-])[O-].[Na+] [Sodium Nitrate, sodium nitrate]
enhancement of the killing efficiency of the irradiation [1]: greatest effect | Percent Survival 0.3 vs. 0 kGy ([1]; Conc. 5000 μg/ml): 0.00% | Post-Treatment CFU Added ([1]; Conc. 5000 μg/ml): 8.15E+05 CFU | cfu recovered, 0.3 kGy ([1]; Conc. 5000 μg/ml): 0 cfu | cfu recovered, 0 kGy ([1]; Conc. 5000 μg/ml): 420 cfu

CN(C)c1ccc2nc3ccc(=[N+](C)C)cc-3sc2c1 [Methylene Blue, methylene blue]
Percent Survival 0.3 vs. 0 kGy ([1]; Conc. 20 μg/ml): 0.13% | Post-Treatment CFU Added ([1]; Conc. 20 μg/ml): 7.80E+05 CFU | cfu recovered, 0.3 kGy ([1]; Conc. 20 μg/ml): 3 cfu | cfu recovered, 0 kGy ([1]; Conc. 20 μg/ml): 2250 cfu | Avg CFU Rec ([2]; 0 kGy, Vicryl mesh): 7.40E+05 CFU | Avg Log CFU ([2]; 0 kGy, Vicryl mesh): 5.72 Log CFU | cfu contained in sample after incubation ([2]; 50 μg/ml methylene blue, 2 hours at room temperature, PBS, untreated 1.8×10^9): 1.6×10^9 cfu/ml | effect of incubation on the bacterial number [2, 6]: did not significantly affect the bacterial number | Avg Log CFU ([2]; 0.1 kGy, Vicryl mesh): 3.90 Log CFU | Avg CFU Rec ([2]; 0.2 kGy, Vicryl mesh): 1.83E+03 CFU | Avg Log CFU ([2]; 0.2 kGy, Vicryl mesh): 3.08 Log CFU | effect on bacterial recovery ([2]; methylene blue, Vicryl mesh): small effect on bacterial recovery | recovery from unirradiated sample ([2]; methylene blue-treated, 0 kGy, Vicryl mesh, control 15%): 4.6% | Inoculum ([2]; spotted onto Vicryl mesh): 1.60E+07 CFU | cfu contained in sample after incubation ([3]; 50 μg/ml methylene blue, 2 hours at room temperature, PBS, suspension used for Prolene and Vicryl meshes, untreated 4.8×10^8): 4.2×10^8 cfu/ml | effect of incubation on the bacterial number [3, 6]: did not significantly affect the bacterial number | Inoculum ([3]; 50 μg/ml methylene blue, spotted onto Prolene mesh): 4.20E+06 CFU | Avg CFU Recovered ([3]; 50 μg/ml, 0.0 kGy, Prolene): 2.38E+03 CFU | Log Red v 0 kGy ([3]; 50 μg/ml, 0.0 kGy, Prolene): 0.0 Log | Log Red v Control ([3]; 50 μg/ml, 0.0 kGy, Prolene): −1.5 Log | Log Red v Inoculum ([3]; 50 μg/ml, 0.0 kGy, Prolene): −3.2 Log | Avg CFU Recovered ([3]; 50 μg/ml, 0.3 kGy, Prolene): 0.00E+00 CFU | Log Red v 0 kGy ([3]; 50 μg/ml, 0.3 kGy, Prolene): −3.4 Log | Log Red v Control ([3]; 50 μg/ml, 0.3 kGy, Prolene): −1.2 Log | Log Red v Inoculum ([3]; 50 μg/ml, 0.3 kGy, Prolene): −6.6 Log | Plated CFU [3, 7]: 0.00E+00 CFU | Total CFU Recovered [3, 7]: 0.00E+00 CFU | number of bacteria recovered, combination with irradiation compared to methylene blue or irradiation alone ([3]; Prolene mesh): significantly reduced the number of bacteria recovered | Inoculum ([4]; 50 μg/ml methylene blue, spotted onto Vicryl mesh): 4.20E+06 CFU | Avg CFU Recovered ([4]; 0.0 kGy): 1.79E+04 CFU | Log Red v 0 kGy ([4]; 0.0 kGy): 0.0 Log | Log Red v Control ([4]; 0.0 kGy): −1.2 Log | Log Red v Inoculum ([4]; 0.0 kGy): −2.4 Log | Avg CFU Recovered ([4]; 0.3 kGy): 9.83E+01 CFU | Log Red v 0 kGy ([4]; 0.3 kGy): −2.3 Log | Log Red v Control ([4]; 0.3 kGy): −0.8 Log | Log Red v Inoculum ([4]; 0.3 kGy): −4.6 Log | number of bacteria recovered, combination with irradiation compared to methylene blue or irradiation alone ([4]; Vicryl mesh): significantly reduced the number of bacteria recovered | cfu contained in sample after incubation ([5]; 2 hours at room temperature, PBS, untreated 4.8×10^8): 4.2×10^8 cfu/ml | effect of incubation on the bacterial number ([5]; 2 hours, no irradiation): did not significantly affect the bacterial number

Cc1cc2nc3c(=O)[nH]c(=O)nc-3n(C[C@H](O)[C@H](O)[C@H](O)CO)c2cc1C [Riboflavin, riboflavin]
Percent Survival 0.3 vs. 0 kGy ([1]; Conc. 200 μg/ml): 0.28% | Post-Treatment CFU Added ([1]; Conc. 200 μg/ml): 8.50E+05 CFU | cfu recovered, 0.3 kGy ([1]; Conc. 200 μg/ml): 3 cfu | cfu recovered, 0 kGy ([1]; Conc. 200 μg/ml): 1080 cfu | Percent Survival 0.3 vs. 0 kGy ([1]; Conc. 1000 μg/ml): 0.83% | Post-Treatment CFU Added ([1]; Conc. 1000 μg/ml): 8.00E+05 CFU | cfu recovered, 0.3 kGy ([1]; Conc. 1000 μg/ml): 9 cfu | cfu recovered, 0 kGy ([1]; Conc. 1000 μg/ml): 1080 cfu

Cc1cc2nc3ccc(N(C)C)cc3[s+]c2cc1N.[Cl-] [Toluidine Blue, toluidine blue]
enhancement of the killing efficiency of the irradiation [1]: greatest effect | Percent Survival 0.3 vs. 0 kGy ([1]; Conc. 20 μg/ml): 0.00% | Post-Treatment CFU Added ([1]; Conc. 20 μg/ml): 7.70E+05 CFU | cfu recovered, 0.3 kGy ([1]; Conc. 20 μg/ml): 0 cfu | cfu recovered, 0 kGy ([1]; Conc. 20 μg/ml): 87 cfu | Percent Survival 0.3 vs. 0 kGy ([1]; Conc. 100 μg/ml): 0.00% | Post-Treatment CFU Added ([1]; Conc. 100 μg/ml): 4.65E+05 CFU | cfu recovered, 0.3 kGy ([1]; Conc. 100 μg/ml): 0 cfu | cfu recovered, 0 kGy ([1]; Conc. 100 μg/ml): 72 cfu
